According to patent publication US12673041B2, “4-aminobut-2-enamide derivatives and salt thereof” (TAIHO PHARMACEUTICAL CO., LTD., priority 2019, dated 2026):

Key:
[1] = tested on: MIA PaCa-2 cells; experiment: Growth inhibition activity on KRAS-G12C mutant cell line (MIA PaCa-2); assay type: cell-based; details: Homo sapiens, 72 h; MIA PaCa-2, 3-day culture, CellTiter-Glo 3D
Protocol: MIA PaCa-2 cells (given by Sumitomo Dainippon Pharma Co., Ltd.), which are a KRAS-G12C mutant human pancreas cancer cell line, were suspended in a 10% fetal bovine serum-containing RPMI1640 medium (manufactured by Fujifilm Wako Pure Chemical Corporation.). The cell suspension was seeded into each well of a 384-well U bottom microplate and cultured in an incubator containing 5% CO2 gas at 37° C. for 1 day. The compounds obtained in the “Preparation of Compounds” section were used as test compounds and were dissolved in DMSO, respectively, and each test compound was diluted with DMSO to give a concentration 500 times the final concentration. The resultant solution of the test compound in DMSO was diluted with the medium used for suspending cells and added to each well of the cell-culture plate to give a DMSO final concentration of 0.2%, followed by culture in an incubator containing 5% CO2 gas at 37° C. for another 3 days. The cell count after 3-day culture in the presence of the test compound was measured using CellTiter-Glo 3D Reagent (manufactured by Promega Corporation). All wells were added with CellTiter-Glo 3D Reagent and mixed for 10 minutes. 30 minutes after mixing, luminescence was measured by a plate reader. The growth inhibition rate was calculated from the following equation, and the concentration of the test compound at which 50% inhibition was achieved (IC50 (nM)) was determined. […] Growth Inhibition Rate (%)=(C−T)/(C)×100 • T: the emission intensity in a well into which a test compound was added. • C: the emission intensity in a well into which a test compound was not added.

[2] = biological target: T1, GMPPNP-bound KRAS G12C protein and cRAF RAS-binding domain (cRAF-RBD) (Homo sapiens, UniProt P01116, G12C); experiment: Inhibitory activity on interaction between KRAS G12C and cRAF (Alpha technology); assay type: biochemical; details: GMPPNP-bound KRAS G12C incubated with compound at 25° C. for 1 hour, then cRAF-RBD, Alpha signal; read-out: IC50
T1 construct: made in house; host or cells: E. coli
Method in brief: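 GMPPNP-loaded His-KRAS G12C (aa 1-169) preincubated 1 h at 25 °C with compound (pH 7.5 Tris, 1 mM MgCl2, TCEP, Tween 20), then cRAF-RBD (aa 50-132) and Alpha reagents added for 1.5 h at RT. Inhibition scaled between DMSO (0%) and GDP-bound KRAS (100%); IC50 by curve fitting.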

[3] = biological target: Gppcp-bound recombinant K-Ras4B G12C mutant protein (amino acids 1-169, C51S/C80L/C118S) (Homo sapiens, UniProt P01116, C118S/C51S/C80L/G12C); experiment: KRASG12C binding assay (LC-MS compound binding rate); details: test compound final concentration 0.5 μM, 25° C., 1 hour
Method in brief: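 Gppcp-bound K-Ras4B G12C (aa 1-169, C51S/C80L/C118S) at 50 nM in 1×TBS, 0.1 mM TCEP, 0.25 mM MgCl2, 50 μM Gppcp was incubated 1 hour at 25° C with compound at 0.5 μM final. Intact-protein LC-MS gave binding rate as single-adduct signal over total KRAS signal, graded A (≥80%) to E (<20%).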

Row | Compound | IC50 [1] [nM] | IC50 [2] [nM] | binding rate [3]
1 | CO[C@H]1CC[C@H](NC/C=C/C(=O)Nc2ccc(C(=O)c3ccc4c(-c5c(Cl)cc6c(ncn6C)c5Cl)cccn34)cc2C#N)CC1 (single isomer, unassigned) [Example 62, (E)-N-(2-cyano-4-(8-(4,6-dichloro-1-methyl-1H-benzo[d]imidazol-5-yl)indolizine-3-carbonyl)phenyl)-4-(((1r,4r)-4-methoxycyclohexyl)amino)but-2-enamide] | 43 | 57 | A (A binding rate of 80% or more is rated “A”)
2 | CO[C@H]1CC[C@H](NC/C=C/C(=O)Nc2ccc(C(=O)Nc3cccc(-c4cc5nc6n(c5cc4C)CCC6)n3)cc2C#N)CC1 [Example 3, 3-cyano-4-((E)-4-(((1r,4r)-4-methoxycyclohexyl)amino)but-2-enamido)-N-(6-(7-methyl-2,3-dihydro-1H-benzo[d]pyrrolo[1,2-a]imidazol-6-yl)pyridin-2-yl)benzamide] | 83 | 50 | B (a binding rate of 60% or more and less than 80% is rated “B”)
3 | Cc1cc2c(cc1-c1cccn3c(C(=O)c4ccc(NC(=O)/C=C/CNC(C)(C)C)c(C#N)c4)ccc13)ncn2C [Example 5, (E)-4-(tert-butylamino)-N-(2-cyano-4-(8-(1,6-dimethyl-1H-benzo[d]imidazol-5-yl)indolizine-3-carbonyl)phenyl)but-2-enamide] | 80 | 29 | A (A binding rate of 80% or more is rated “A”)
4 | CO[C@H]1CC[C@H](NC/C=C/C(=O)Nc2ccc(C(=O)c3ccc4c(-c5cc6ncn(C)c6cc5C(F)(F)F)cccn34)cc2C#N)CC1 [Example 6, (E)-N-(2-cyano-4-(8-(1-methyl-6-(trifluoromethyl)-1H-benzo[d]imidazol-5-yl)indolizine-3-carbonyl)phenyl)-4-(((1r,4r)-4-methoxycyclohexyl)amino)but-2-enamide] | 43 | 15 | A (A binding rate of 80% or more is rated “A”)
5 | CO[C@H]1CC[C@H](NC/C=C/C(=O)Nc2ccc(C(=O)c3ccc4c(-c5cc6nc(C)n(C)c6cc5C(F)(F)F)cccn34)cc2C#N)CC1 [Example 7, (E)-N-(2-cyano-4-(8-(1,2-dimethyl-6-(trifluoromethyl)-1H-benzo[d]imidazol-5-yl)indolizine-3-carbonyl)phenyl)-4-(((1r,4r)-4-methoxycyclohexyl)amino)but-2-enamide] | 49 | 35 | A (A binding rate of 80% or more is rated “A”)
6 | CO[C@H]1CC[C@H](NC/C=C/C(=O)Nc2ccc(C(=O)c3c[nH]c4c(-c5cc6ncn(C)c6cc5C(F)(F)F)cccc34)cc2C#N)CC1 [Example 8, (E)-N-(2-cyano-4-(7-(1-methyl-6-(trifluoromethyl)-1H-benzo[d]imidazol-5-yl)-1H-indole-3-carbonyl)phenyl)-4-(((1r,4r)-4-methoxycyclohexyl)amino)but-2-enamide] | 52 | 19 | A (A binding rate of 80% or more is rated “A”)
7 | CO[C@H]1CC[C@H](NC/C=C/C(=O)Nc2ccc(C(=O)c3cnc4c(-c5cc6ncn(C)c6cc5C)cccn34)cc2C#N)CC1 [Example 9, (E)-N-(2-cyano-4-(8-(1,6-dimethyl-1H-benzo[d]imidazol-5-yl)imidazo[1,2-a]pyridine-3-carbonyl)phenyl)-4-(((1r,4r)-4-methoxycyclohexyl)amino)but-2-enamide] | 100 | 66 | B (a binding rate of 60% or more and less than 80% is rated “B”)
8 | CCc1nc2cc(-c3cccc4c3CCN4C(=O)c3ccc(NC(=O)/C=C/CN[C@H]4CC[C@H](N5CCCC5)CC4)c(C#N)c3)c(C(F)(F)F)cc2n1C [Example 29, (E)-N-(2-cyano-4-(4-(2-ethyl-1-methyl-6-(trifluoromethyl)-1H-benzo[d]imidazol-5-yl)indoline-1-carbonyl)phenyl)-4-(((1r,4r)-4-(pyrrolidin-1-yl)cyclohexyl)amino)but-2-enamide] | 410 | 95 | A (A binding rate of 80% or more is rated “A”)
9 | CCc1nc2cc(-c3cccc4c3CCN4C(=O)c3ccc(NC(=O)/C=C/CNC4CCN(C(C)C)CC4)c(C#N)c3)c(C(F)(F)F)cc2n1C [Example 30, (E)-N-(2-cyano-4-(4-(2-ethyl-1-methyl-6-(trifluoromethyl)-1H-benzo[d]imidazol-5-yl)indoline-1-carbonyl)phenyl)-4-((1-isopropylpiperidin-4-yl)amino)but-2-enamide] | 370 | 75 | A (A binding rate of 80% or more is rated “A”)
10 | CO[C@H]1CC[C@H](NC/C=C/C(=O)Nc2ccc(C(=O)c3ccc4c(-c5cc6nc7n(c6cc5C(F)(F)F)CCC7)cccn34)cc2C#N)CC1 [Example 31, (E)-N-(2-cyano-4-(8-(7-(trifluoromethyl)-2,3-dihydro-1H-benzo[d]pyrrolo[1,2-a]imidazol-6-yl)indolizine-3-carbonyl)phenyl)-4-(((1r,4r)-4-methoxycyclohexyl)amino)but-2-enamide] | 86 | 26 | A (A binding rate of 80% or more is rated “A”)
11 | CCc1cc2c(cc1-c1cccc(NC(=O)c3ccc(NC(=O)/C=C/CN[C@H]4CC[C@H](OC)CC4)c(C#N)c3)c1)nc1n2CCC1 [Example 32, 3-cyano-N-(3-(7-ethyl-2,3-dihydro-1H-benzo[d]pyrrolo[1,2-a]imidazol-6-yl)phenyl)-4-((E)-4-(((1r,4r)-4-methoxycyclohexyl)amino)but-2-enamido)benzamide] | 310 | 27 | B (a binding rate of 60% or more and less than 80% is rated “B”)

Now from value to compound, other results behind:

Row | IC50 [1] [nM] | IC50 [2] [nM] | Compound | binding rate [3]
12 |  | 130 | CO[C@H]1CC[C@H](NC/C=C/C(=O)Nc2ccc(C(=O)c3ccc4c(-c5cc6cn(C)nc6cc5C)cccn34)cc2C#N)CC1 [Example 76, (E)-N-(2-cyano-4-(8-(2,6-dimethyl-2H-indazol-5-yl)indolizine-3-carbonyl)phenyl)-4-(((1r,4r)-4-methoxycyclohexyl)amino)but-2-enamide] | A (A binding rate of 80% or more is rated “A”)
13 |  | 330 | Cn1cnc2cc(-c3cccn4c(C(=O)c5ccc(NC(=O)/C=C/CNC(C)(C)C)c(Cl)c5)ccc34)c(C(F)(F)F)cc21 [Example 77, (E)-4-(tert-butylamino)-N-(2-chloro-4-(8-(1-methyl-6-(trifluoromethyl)-1H-benzo[d]imidazol-5-yl)indolizine-3-carbonyl)phenyl)but-2-enamide] | C (a binding rate of 40% or more and less than 60% is rated “C”)
14 |  | 440 | CO[C@H]1CC[C@H](NC/C=C/C(=O)Nc2ccc(C(=O)c3ccc4c(-c5ccc6nn(C)c(Cl)c6c5Cl)cccn34)cc2C#N)CC1 [Example 79, (E)-N-(2-cyano-4-(8-(3,4-dichloro-2-methyl-2H-indazol-5-yl)indolizine-3-carbonyl)phenyl)-4-(((1r,4r)-4-methoxycyclohexyl)amino)but-2-enamide] | A (A binding rate of 80% or more is rated “A”)
15 |  | 150 | CO[C@H]1CC[C@H](NC/C=C/C(=O)Nc2ccc(C(=O)c3ccc4c(-c5c(C)cc6c(ncn6C)c5-c5cccnc5)cccn34)cc2C#N)CC1 [Example 82, (E)-N-(2-cyano-4-(8-(1,6-dimethyl-4-(pyridin-3-yl)-1H-benzo[d]imidazol-5-yl)indolizine-3-carbonyl)phenyl)-4-(((1r,4r)-4-methoxycyclohexyl)amino)but-2-enamide] | A (A binding rate of 80% or more is rated “A”)
16 |  | 440 | CO[C@H]1CC[C@H](NC/C=C/C(=O)Nc2ccc(C(=O)c3c[nH]c4c(-c5cc6ncn(C)c6cc5C(F)(F)F)cccc34)c(F)c2)CC1 [Example 83, (E)-N-(3-fluoro-4-(7-(1-methyl-6-(trifluoromethyl)-1H-benzo[d]imidazol-5-yl)-1H-indole-3-carbonyl)phenyl)-4-(((1r, 4r)-4-methoxycyclohexyl)amino)but-2-enamide] | A (A binding rate of 80% or more is rated “A”)
